# Data taken from PubChem BioAssay (NCI).
# Several values for one entry are separate records, joined by “and”; a condition that tells them apart may be missing. Equal entries are not always repeated.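 Interpolation was linear, between the two tested concentrations surrounding the appropriate level; five concentrations were tested over 48 hours in 96-well plates. GI50 marks 50% less growth. TGI denotes the concentration required for complete inhibition of growth.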
# What was measured:
# Assay in all cases: NCI-60 cell line screen, 48 h
# EKVX NSCLC = tested on: EKVX NSCLC
# K-562 leukemia = tested on: K-562 leukemia
# MALME-3M melanoma = tested on: MALME-3M melanoma
# MOLT-4 leukemia = tested on: MOLT-4 leukemia
# NCI-H23 lung = tested on: NCI-H23 lung
# SF-295 CNS = tested on: SF-295 CNS
# COLO 205 colon = tested on: COLO 205 colon
# OVCAR-4 ovarian = tested on: OVCAR-4 ovarian
Compound,GI50 (EKVX NSCLC),TGI (EKVX NSCLC),GI50 (K-562 leukemia),TGI (K-562 leukemia),GI50 (MALME-3M melanoma),TGI (MALME-3M melanoma),GI50 (MOLT-4 leukemia),TGI (MOLT-4 leukemia),GI50 (NCI-H23 lung),TGI (NCI-H23 lung),GI50 (SF-295 CNS),TGI (SF-295 CNS),GI50 (COLO 205 colon),TGI (COLO 205 colon),GI50 (OVCAR-4 ovarian),TGI (OVCAR-4 ovarian)
O=C(Nc1nc2ccccc2s1)c1cc(-c2ccc(F)cc2)n2nc(-c3ccccc3)cc2n1,6.69 µM,> 100 µM,4.25 µM,15.3 µM,3.74 µM,> 100 µM,21 µM,71.7 µM,2.81 µM,> 100 µM,4.11 µM,> 100 µM,–,–,–,–
COc1cc2c(cc1OCCCOc1ccc(-c3nc4ccc(N5CCN(C)CC5)cc4[nH]3)cc1)N=C[C@@H]1CCCN1C2=O,< 0.01 µM,< 0.01 µM,< 0.01 µM,0.818 µM,< 0.01 µM,< 0.01 µM,< 0.01 µM,< 0.01 µM,< 0.01 µM,< 0.01 µM,< 0.01 µM,< 0.0359 µM,< 0.01 µM,> 100 µM,< 0.01 µM,17.2 µM
COc1ccc(C2=Nc3c/c(=C\c4c(O)[nH]c5cc(Cl)ccc45)ccc3=N2)cc1,–,–,2.18 µM,11.5 µM,2.87 µM,12.7 µM,4.85 µM,29.9 µM,10.2 µM,24.2 µM,12.3 µM,63.8 µM,7.19 µM,21 µM,3.22 µM,13.6 µM
CCCCCCCCCCSC(=N)N,10.3 µM,25.3 µM,–,–,2.32 µM,6.59 µM,–,–,6.38 µM,21.3 µM,1.72 µM,3.51 µM,1.55 µM,2.91 µM,3.58 µM,17.6 µM
Cc1ccc(-c2n[nH]c(=O)c3noc(-c4ccc(C)cc4)c23)cc1,–,–,0.383 µM,> 100 µM,1.09 µM,23.4 µM,1.95 µM,> 100 µM,4.86 µM,> 100 µM,–,–,0.752 µM,5.05 µM,10.1 µM,43.6 µM
C=CC(C)(O)CC/C=C(\CO)C(=O)OC1C(C)OC(O[C@](C)(C=C)CC/C=C(\CO)C(=O)O[C@H]2C[C@@]3(C(=O)OC4OC(CO)C(O)C(O)C4OC4OC(C)C(OC5OC(CO)C(O)C5O)C(OC5OC(CO)C(O)C(O)C5O)C4O)C(CC2(C)C)C2=CCC4[C@@]5(C)CC[C@H](OC6OC(COC7OC(C)C(O)C(O)C7OC7OCC(O)C(O)C7O)C(O)C(O)C6NC(C)=O)C(C)(C)C5CC[C@@]4(C)[C@]2(C)C[C@H]3O)C(O)C1O (some centres not stated),0.901 µM,5.02 µM,7.13 µM,16.7 µM,0.261 µM,1.01 µM,0.886 µM,12.9 µM,2.01 µM,7.49 µM,0.083 µM,0.312 µM,0.168 µM,0.927 µM,0.11 µM,0.47 µM
CN=C(N)N/N=C(\C)c1ccc2c(c1)Cc1ccccc1-2,2.62 µM,13.9 µM,1.28 µM,2.69 µM,1.51 µM,3.02 µM,0.352 µM,1.49 µM,2.84 µM,12.3 µM,1.9 µM,4.32 µM,1.66 µM,3.02 µM,3.98 µM,19.4 µM
COc1ccc2c(c1)/C(=N/OC(C)=O)c1c-2cnc2ccccc12,23.1 µM,> 100 µM,24.4 µM,73.1 µM,16.2 µM,39.1 µM,20 µM,92.2 µM,46.6 µM,> 100 µM,–,–,26.5 µM,94.7 µM,31.7 µM,83.6 µM
CC(N1CCOCC1)C(O)(c1ccccc1)c1ccccn1 (configuration not stated),–,> 100 µM,–,> 100 µM,–,> 100 µM,–,–,–,> 100 µM,–,> 100 µM,–,> 100 µM,–,> 100 µM
Cn1cc(C2=C(c3cn(CCCCC(=N)N)c4ccccc34)C(=O)NC2=O)c2ccccc21,–,–,13.5 µM,> 25 µM,> 25 µM,> 25 µM,22.1 µM,> 25 µM,> 25 µM,> 25 µM,> 13.7 µM,> 25 µM,11.8 µM,> 25 µM,> 25 µM,> 25 µM
Cn1cc(-c2nc(N[C@@H]3CCCC[C@@H]3N)c(F)c3c2C(=O)NC3)cn1,14.3 µM and 20.1 µM,> 100 µM,6.83 µM and 6.77 µM,> 100 µM,11 µM and 9.57 µM,35.2 µM and 50.5 µM,4.74 µM and 6.87 µM,> 80.2 µM and 98.9 µM,5.58 µM and 5.83 µM,48.7 µM and > 63.7 µM,3.95 µM and 3.5 µM,> 77.2 µM,1.41 µM and 1.63 µM,3.99 µM and 4.13 µM,15.4 µM and 19.6 µM,> 100 µM
Cc1cc2nc(-c3c(F)cccc3Cl)n(Cc3c(F)cccc3Cl)c2cc1C,–,–,39.4 µM,> 100 µM,–,–,30.4 µM,> 100 µM,9.49 µM,22.9 µM,6.92 µM,33.3 µM,11.6 µM,26.3 µM,19 µM,74.1 µM
CCOC(=O)c1c(C)n(Cc2ccccc2)c2c1cc1oc(=O)c(=O)n3cnc2c13,13 µM,39.7 µM,12.9 µM,> 50 µM,–,–,8.47 µM,> 50 µM,14.4 µM,> 50 µM,16.2 µM,> 50 µM,12.8 µM,30.6 µM,19.8 µM,> 50 µM
CCN(CC)Cc1cc(Nc2c3ccccc3nc3cc(Cl)ccc23)ccc1O,2.26 µM,5.99 µM,1.69 µM,39 µM,1.94 µM,3.58 µM,2.01 µM,53.5 µM,–,–,1.9 µM,4.86 µM,1.05 µM,2.3 µM,1.18 µM,2.43 µM
Cc1cc(Br)cc(C)c1NC(=O)C(=O)Nn1c(=S)[nH]c2ccccc2c1=O,–,> 100 µM,–,> 100 µM,–,> 100 µM,–,> 100 µM,–,> 100 µM,–,> 100 µM,–,–,–,> 100 µM
O=C(/C=C/c1ccccc1)CCC1C(=O)NC(=S)NC1=O,–,–,–,> 100 µM,–,–,–,> 100 µM,–,> 100 µM,–,> 100 µM,–,> 100 µM,–,–
H-QIYKKYRTWYRKAWKVLGKV-NH2,3.04 µM,11.7 µM,3.21 µM,> 100 µM,–,–,11.7 µM,79.5 µM,3.96 µM,30.1 µM,4.72 µM,23.9 µM,4.3 µM,80.7 µM,9.03 µM,50.5 µM
O=C(O)CCc1nc(-c2ccccc2-n2cccc2)no1,–,> 100 µM,–,> 100 µM,–,> 100 µM,–,–,–,> 100 µM,–,> 100 µM,–,> 100 µM,–,> 100 µM
